Reference: patent US9809623B2, “α4β7 peptide monomer and dimer antagonists” (Protagonist Therapeutics, Inc., priority 2014, dated 2017)
Numbered stars: 1 amine (or outer) side, 2 acyl side, 3 side chain; on linkers, the order of the positions; unused ones are H or OH. Bridge positions count the residues as written; N and C are the ends. Square brackets hold non-standard residues; d marks the D form. Peptide text beside a SMILES is read from it. I, II: the chains in the order shown. * marks the point of attachment. Phe(4-tBu) = CC(C)(C)c1ccc(C[C@H](N)C(=O)O)cc1; 1Nal = N[C@@H](Cc1cccc2ccccc12)C(=O)O; 2Nal = N[C@@H](Cc1ccc2ccccc2c1)C(=O)O; Diglycolyl = O=C(COCC(=O)[*:2])[*:1]; NMeR = CN[C@@H](CCCNC(=N)N)C(=O)O; Palmitoyl = CCCCCCCCCCCCCCCC(=O)*; Tic = O=C(O)[C@@H]1Cc2ccccc2CN1; β3hE = N[C@@H](CCC(=O)O)CC(=O)O; Pen = CC(C)(S)[C@H](N)C(=O)O; Isovaleryl = CC(C)CC(=O)*

target: α4β7 (Homo sapiens, UniProt P13612+P26010); test: α4β7-MAdCAM Cell Adhesion Assay (RPMI 8866 human cells); format: cell-based; parameters: host or cells: RPMI 8866 human B lymphoblastoid cells; details: Table 3-B, Potency (α4β7); range classes; read-out: α4β7 cell (Hu) IC50
How it was run: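 Washed RPMI 8866 cells (200,000/well) in DMEM with 0.1% BSA, 10 mM HEPES pH 7, 1 mM MnCl2 adhered to rh MAdCAM-1/Fc-coated wells with serially diluted peptides, 30-45 min at 37 °C. After three washes, bound cells quantified by MTT, A570, cell-free background subtracted for dose response.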

Sequence of α4β7 (P13612 34-1032): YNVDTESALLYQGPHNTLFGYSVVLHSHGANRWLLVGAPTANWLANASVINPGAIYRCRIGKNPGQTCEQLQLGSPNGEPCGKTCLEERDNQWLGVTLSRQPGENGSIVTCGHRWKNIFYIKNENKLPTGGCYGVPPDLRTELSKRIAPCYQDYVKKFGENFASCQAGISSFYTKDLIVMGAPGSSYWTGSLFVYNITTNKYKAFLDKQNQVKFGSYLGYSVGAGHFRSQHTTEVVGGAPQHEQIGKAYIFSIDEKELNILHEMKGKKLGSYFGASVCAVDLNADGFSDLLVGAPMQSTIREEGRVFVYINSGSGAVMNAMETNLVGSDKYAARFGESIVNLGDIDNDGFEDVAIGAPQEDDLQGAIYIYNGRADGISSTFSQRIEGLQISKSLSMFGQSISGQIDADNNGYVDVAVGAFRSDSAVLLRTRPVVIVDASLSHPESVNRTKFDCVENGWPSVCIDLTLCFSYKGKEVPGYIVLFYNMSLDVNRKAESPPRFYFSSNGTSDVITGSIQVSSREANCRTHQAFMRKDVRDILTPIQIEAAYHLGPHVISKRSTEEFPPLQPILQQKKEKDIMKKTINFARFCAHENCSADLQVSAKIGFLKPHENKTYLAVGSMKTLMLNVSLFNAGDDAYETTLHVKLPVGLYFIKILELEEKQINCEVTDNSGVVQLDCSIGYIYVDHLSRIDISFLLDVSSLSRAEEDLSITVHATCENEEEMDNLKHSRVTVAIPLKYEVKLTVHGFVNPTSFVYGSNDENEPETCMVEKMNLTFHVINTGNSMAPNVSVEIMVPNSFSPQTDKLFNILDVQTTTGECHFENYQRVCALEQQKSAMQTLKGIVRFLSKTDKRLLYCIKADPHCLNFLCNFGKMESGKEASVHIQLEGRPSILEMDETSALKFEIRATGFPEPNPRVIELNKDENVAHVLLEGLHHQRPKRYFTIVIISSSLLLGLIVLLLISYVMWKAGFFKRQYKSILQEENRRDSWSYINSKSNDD
Sequence of α4β7 (P26010 20-798): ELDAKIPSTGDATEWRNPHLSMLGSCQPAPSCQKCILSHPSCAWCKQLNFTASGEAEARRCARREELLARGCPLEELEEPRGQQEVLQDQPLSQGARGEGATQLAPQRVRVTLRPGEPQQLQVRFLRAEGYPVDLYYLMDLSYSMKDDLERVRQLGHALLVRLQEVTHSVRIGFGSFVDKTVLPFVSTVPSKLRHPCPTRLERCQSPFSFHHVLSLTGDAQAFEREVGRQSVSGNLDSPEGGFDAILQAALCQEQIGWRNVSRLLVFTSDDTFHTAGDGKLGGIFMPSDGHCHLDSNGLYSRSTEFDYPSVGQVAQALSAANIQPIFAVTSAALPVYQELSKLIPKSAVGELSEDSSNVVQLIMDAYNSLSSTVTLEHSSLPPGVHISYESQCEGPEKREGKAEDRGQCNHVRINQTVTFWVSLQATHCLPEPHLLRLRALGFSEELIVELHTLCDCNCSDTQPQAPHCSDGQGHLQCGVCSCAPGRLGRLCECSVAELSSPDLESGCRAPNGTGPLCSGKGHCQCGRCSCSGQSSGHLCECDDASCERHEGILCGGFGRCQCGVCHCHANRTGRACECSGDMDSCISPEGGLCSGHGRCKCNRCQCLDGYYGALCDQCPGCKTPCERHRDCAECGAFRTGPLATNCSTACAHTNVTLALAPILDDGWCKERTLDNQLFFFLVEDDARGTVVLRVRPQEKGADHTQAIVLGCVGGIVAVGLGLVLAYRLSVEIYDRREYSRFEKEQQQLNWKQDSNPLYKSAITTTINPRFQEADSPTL

Structure (SMILES)	IC50 [nM]
CC[C@H](C)[C@@H]1NC(=O)[C@H](CCC(N)=O)NC(=O)[C@H](CO)NC(=O)[C@H](CCCNC(=N)N)N(C)C(=O)[C@@H](NC(C)=O)C(C)(C)SSC(C)(C)[C@@H](C(=O)N[C@@H](Cc2ccc(C(C)(C)C)cc2)C(=O)N[C@@H](CCC(=O)O)CC(=O)N[C@H](CCCCNC(=O)CN(CC(=O)NCCCC[C@@H](NC(=O)C[C@H](CCC(=O)O)NC(=O)[C@H](Cc2ccc(C(C)(C)C)cc2)NC(=O)[C@H]2NC(=O)[C@H](CCC(N)=O)NC(=O)[C@H]([C@@H](C)CC)NC(=O)[C@H](CCC(N)=O)NC(=O)[C@H](CO)NC(=O)[C@H](CCCNC(=N)N)N(C)C(=O)[C@@H](NC(C)=O)C(C)(C)SSC2(C)C)C(N)=O)C(=O)CCN)C(N)=O)NC(=O)[C@H](CCC(N)=O)NC1=O [compound 190]	> 100000
CC(=O)N[C@@H]1C(=O)N(C)[C@@H](CCCNC(=N)N)C(=O)N[C@@H](CO)C(=O)N[C@@H](CC(=O)O)C(=O)N[C@@H]([C@@H](C)O)C(=O)N[C@@H](CC(C)C)C(=O)N[C@H](C(=O)N[C@@H](Cc2c[nH]c3ccccc23)C(=O)N[C@H](Cc2ccc(O)cc2)C(=O)N[C@H](CCCCNC(=O)COCC(=O)NCCCC[C@@H](NC(=O)[C@@H](Cc2ccc(O)cc2)NC(=O)[C@H](Cc2c[nH]c3ccccc23)NC(=O)[C@H]2NC(=O)[C@H](CC(C)C)NC(=O)[C@H]([C@@H](C)O)NC(=O)[C@H](CC(=O)O)NC(=O)[C@H](CO)NC(=O)[C@H](CCCNC(=N)N)N(C)C(=O)[C@@H](NC(C)=O)C(C)(C)SSC2(C)C)C(N)=O)C(N)=O)C(C)(C)SSC1(C)C [compound 92] (I: Ac-[Pen][NMeR]SDTL[Pen]W[dY][dK]-NH2 / II: Ac-[Pen][NMeR]SDTL[Pen]W[dY][dK]-NH2; disulfide I:1-I:7, II:1-II:7; linker I:10-II:10 via Diglycolyl)	50 to 100
CC(=O)N[C@@H]1C(=O)N(C)[C@@H](CCCNC(=N)N)C(=O)N[C@@H](CO)C(=O)N[C@@H](CC(=O)O)C(=O)N[C@@H]([C@@H](C)O)C(=O)N[C@@H](CC(C)C)C(=O)N[C@H](C(=O)N[C@@H](Cc2c[nH]c3ccccc23)C(=O)N[C@H](CCC(=O)O)C(=O)N[C@H](CCCCNC(=O)CN(CC(=O)NCCCC[C@@H](NC(=O)[C@@H](CCC(=O)O)NC(=O)[C@H](Cc2c[nH]c3ccccc23)NC(=O)[C@H]2NC(=O)[C@H](CC(C)C)NC(=O)[C@H]([C@@H](C)O)NC(=O)[C@H](CC(=O)O)NC(=O)[C@H](CO)NC(=O)[C@H](CCCNC(=N)N)N(C)C(=O)[C@@H](NC(C)=O)C(C)(C)SSC2(C)C)C(N)=O)C(=O)CCN)C(N)=O)C(C)(C)SSC1(C)C [compound 70]	25 to 50
CC[C@H](C)[C@@H]1NC(=O)[C@H](CC(=O)O)NC(=O)[C@H](CO)NC(=O)[C@H](CCCNC(=N)N)N(C)C(=O)[C@@H](NC(C)=O)C(C)(C)SSC(C)(C)[C@@H](C(=O)N[C@@H](Cc2ccc(C(C)(C)C)cc2)C(=O)N[C@@H](CCC(=O)O)CC(=O)N[C@H](CCCCNC(=O)CN(CC(=O)NCCCC[C@@H](NC(=O)C[C@H](CCC(=O)O)NC(=O)[C@H](Cc2ccc(C(C)(C)C)cc2)NC(=O)[C@H]2NC(=O)[C@H](CC(C)C)NC(=O)[C@H]([C@@H](C)CC)NC(=O)[C@H](CC(=O)O)NC(=O)[C@H](CO)NC(=O)[C@H](CCCNC(=N)N)N(C)C(=O)[C@@H](NC(C)=O)C(C)(C)SSC2(C)C)C(N)=O)C(=O)CCN)C(N)=O)NC(=O)[C@H](CC(C)C)NC1=O [compound 186]	100 to 500
CCCCCCCCCCCCCCCC(=O)N[C@@H]1C(=O)N(C)[C@@H](CCCNC(=N)N)C(=O)N[C@@H](CO)C(=O)N[C@@H](CC(=O)O)C(=O)N[C@@H]([C@@H](C)O)C(=O)N[C@@H](CC(C)C)C(=O)N[C@H](C(=O)N[C@@H](Cc2ccc(C(C)(C)C)cc2)C(=O)N[C@@H](CCC(=O)O)CC(=O)N[C@H](CCCCN)C(N)=O)C(C)(C)SSC1(C)C [compound 178] (Palmitoyl-[Pen][NMeR]SDTL[Pen][Phe(4-tBu)][β3hE][dK]-NH2; disulfide 1-7)	1000 to 10000
CC(=O)N[C@@H]1C(=O)N(C)[C@@H](CCCNC(=N)N)C(=O)N[C@@H](CO)C(=O)N[C@@H](CC(=O)O)C(=O)N[C@@H](C(C)C)C(=O)N[C@@H](CC(C)C)C(=O)N[C@H](C(=O)N[C@@H](Cc2ccc3ccccc3c2)C(=O)N[C@H](CCC(=O)O)C(N)=O)C(C)(C)SSC1(C)C [compound 156] (Ac-[Pen][NMeR]SDVL[Pen][2Nal][dE]-NH2; disulfide 1-7)	100 to 500
CC(=O)N[C@@H]1C(=O)N(C)[C@@H](CCCNC(=N)N)C(=O)N[C@@H](CO)C(=O)N[C@@H](CC(=O)O)C(=O)N[C@@H]([C@@H](C)O)C(=O)N[C@@H](CC(C)C)C(=O)N[C@H](C(=O)N[C@@H](Cc2c[nH]c3ccccc23)C(=O)N[C@H](CCCCNC(=O)COCC(=O)NCCCC[C@@H](NC(=O)[C@H](Cc2c[nH]c3ccccc23)NC(=O)[C@H]2NC(=O)[C@H](CC(C)C)NC(=O)[C@H]([C@@H](C)O)NC(=O)[C@H](CC(=O)O)NC(=O)[C@H](CO)NC(=O)[C@H](CCCNC(=N)N)N(C)C(=O)[C@@H](NC(C)=O)C(C)(C)SSC2(C)C)C(=O)O)C(=O)O)C(C)(C)SSC1(C)C [compound 76] (I: Ac-[Pen][NMeR]SDTL[Pen]W[dK]-OH / II: Ac-[Pen][NMeR]SDTL[Pen]W[dK]-OH; disulfide I:1-I:7, II:1-II:7; linker I:9-II:9 via Diglycolyl)	10 to 25
CC(=O)N[C@@H]1C(=O)N(C)[C@@H](CCCNC(=N)N)C(=O)N[C@@H](CO)C(=O)N[C@@H](CC(=O)O)C(=O)N[C@@H]([C@@H](C)O)C(=O)N[C@@H](CC(C)C)C(=O)N[C@H](C(=O)N[C@@H](Cc2c[nH]c3ccccc23)C(=O)N2Cc3ccccc3C[C@H]2C(=O)N[C@H](CCCCNC(=O)COCC(=O)NCCCC[C@@H](NC(=O)[C@@H]2Cc3ccccc3CN2C(=O)[C@H](Cc2c[nH]c3ccccc23)NC(=O)[C@H]2NC(=O)[C@H](CC(C)C)NC(=O)[C@H]([C@@H](C)O)NC(=O)[C@H](CC(=O)O)NC(=O)[C@H](CO)NC(=O)[C@H](CCCNC(=N)N)N(C)C(=O)[C@@H](NC(C)=O)C(C)(C)SSC2(C)C)C(N)=O)C(N)=O)C(C)(C)SSC1(C)C [compound 109] (I: Ac-[Pen][NMeR]SDTL[Pen]W[Tic][dK]-NH2 / II: Ac-[Pen][NMeR]SDTL[Pen]W[Tic][dK]-NH2; disulfide I:1-I:7, II:1-II:7; linker I:10-II:10 via Diglycolyl)	100 to 500
CC(=O)N[C@@H]1C(=O)N(C)[C@@H](CCCNC(=N)N)C(=O)N[C@@H](CO)C(=O)N[C@@H](CC(=O)O)C(=O)N[C@@H]([C@@H](C)O)C(=O)N[C@@H](CC(C)C)C(=O)N[C@H](C(=O)N[C@@H](Cc2c[nH]c3ccccc23)C(=O)N2CCC[C@H]2C(=O)N[C@H](CCCCNC(=O)COCC(=O)NCCCC[C@@H](NC(=O)[C@@H]2CCCN2C(=O)[C@H](Cc2c[nH]c3ccccc23)NC(=O)[C@H]2NC(=O)[C@H](CC(C)C)NC(=O)[C@H]([C@@H](C)O)NC(=O)[C@H](CC(=O)O)NC(=O)[C@H](CO)NC(=O)[C@H](CCCNC(=N)N)N(C)C(=O)[C@@H](NC(C)=O)C(C)(C)SSC2(C)C)C(N)=O)C(N)=O)C(C)(C)SSC1(C)C [compound 94] (I: Ac-[Pen][NMeR]SDTL[Pen]WP[dK]-NH2 / II: Ac-[Pen][NMeR]SDTL[Pen]WP[dK]-NH2; disulfide I:1-I:7, II:1-II:7; linker I:10-II:10 via Diglycolyl)	100 to 500
CC[C@H](C)[C@@H]1NC(=O)[C@H](CCC(N)=O)NC(=O)[C@H](CO)NC(=O)[C@H](CCCNC(=N)N)N(C)C(=O)[C@@H](NC(C)=O)C(C)(C)SSC(C)(C)[C@@H](C(=O)N[C@@H](Cc2ccc(C(C)(C)C)cc2)C(=O)N[C@@H](CCC(=O)O)CC(=O)N[C@H](CCCCNC(=O)COCC(=O)NCCCC[C@@H](NC(=O)C[C@H](CCC(=O)O)NC(=O)[C@H](Cc2ccc(C(C)(C)C)cc2)NC(=O)[C@H]2NC(=O)[C@H](CCC(N)=O)NC(=O)[C@H]([C@@H](C)CC)NC(=O)[C@H](CCC(N)=O)NC(=O)[C@H](CO)NC(=O)[C@H](CCCNC(=N)N)N(C)C(=O)[C@@H](NC(C)=O)C(C)(C)SSC2(C)C)C(N)=O)C(N)=O)NC(=O)[C@H](CCC(N)=O)NC1=O [compound 189] (I: Ac-[Pen][NMeR]SQIQ[Pen][Phe(4-tBu)][β3hE][dK]-NH2 / II: Ac-[Pen][NMeR]SQIQ[Pen][Phe(4-tBu)][β3hE][dK]-NH2; disulfide I:1-I:7, II:1-II:7; linker I:10-II:10 via Diglycolyl)	10000 to 100000
CC(C)CC(=O)N[C@@H]1C(=O)N(C)[C@@H](CCCNC(=N)N)C(=O)N[C@@H](CO)C(=O)N[C@@H](CC(=O)O)C(=O)N[C@@H]([C@@H](C)O)C(=O)N[C@@H](CC(C)C)C(=O)N[C@H](C(=O)N[C@@H](Cc2ccc(C(C)(C)C)cc2)C(=O)N[C@@H](CCC(=O)O)CC(=O)N[C@H](CCCCN)C(N)=O)C(C)(C)SSC1(C)C [compound 177] (Isovaleryl-[Pen][NMeR]SDTL[Pen][Phe(4-tBu)][β3hE][dK]-NH2; disulfide 1-7)	50 to 100
CC(=O)N[C@@H]1C(=O)N(C)[C@@H](CCCNC(=N)N)C(=O)N[C@@H](CO)C(=O)N[C@@H](CC(=O)O)C(=O)N[C@@H]([C@@H](C)O)C(=O)N[C@@H](CC(C)C)C(=O)N[C@H](C(=O)N[C@@H](Cc2cccc3ccccc23)C(=O)N2Cc3ccccc3C[C@H]2C(=O)N[C@H](CCCCNC(=O)COCC(=O)NCCCC[C@@H](NC(=O)[C@@H]2Cc3ccccc3CN2C(=O)[C@H](Cc2cccc3ccccc23)NC(=O)[C@H]2NC(=O)[C@H](CC(C)C)NC(=O)[C@H]([C@@H](C)O)NC(=O)[C@H](CC(=O)O)NC(=O)[C@H](CO)NC(=O)[C@H](CCCNC(=N)N)N(C)C(=O)[C@@H](NC(C)=O)C(C)(C)SSC2(C)C)C(N)=O)C(N)=O)C(C)(C)SSC1(C)C [compound 115] (I: Ac-[Pen][NMeR]SDTL[Pen][1Nal][Tic][dK]-NH2 / II: Ac-[Pen][NMeR]SDTL[Pen][1Nal][Tic][dK]-NH2; disulfide I:1-I:7, II:1-II:7; linker I:10-II:10 via Diglycolyl)	100 to 500
